Experimental data published in patent publication US7589086B2, “Substituted pyrazolo[3,4-D]pyrimidines as anti-tumor agents” (Universita degli Studi di Siena, priority 2003, dated 2009).

Assays:
[1] = test system: A431 human epidermoid carcinoma cells; test: Cell proliferation assay (MTT), A431; format: cell-based; conditions: compounds 0-100 μM, 72 hours, means ± SEM, NA = not active at 100 μM concentration
Procedure: (§1) A431 (2×10^4 cells/mL) were incubated in […] DMEM culture medium (BioWhittaker, Vallensbaek, DK). Differently, 8701-BC (2×10^4 cells/mL) were incubated in 100 μL RPMI 1640 culture medium (BioWhittaker, Vallensbaek, DK). Both cell lines were supplemented with 10% foetal calf serum (FCS; BioWhittaker, Vallensbaek, DK) and antibiotics (100 U/mL penicillin and 100 μg/mL streptomycin), at 37° C. in 5% CO2 for 8 hours, to allow adhesion. After adhesion, the medium was replaced with 100 μL medium supplemented with 0.5% FCS. After an overnight incubation, the medium was replaced and 100 μL DMEM with 10% FCS along with different concentrations (0-100 μM) of the studied compounds were added to cell cultures.
(§2) Following 72 hours, cells were treated with 10 μL of the 3-(4,5-dimethylthiazol-2-yl)-[…] (MTT) solution (5 mg/mL). Four hours later, 100 μL of propan-2-ol in a 0.04 M HCl solution were added to dissolve the formazan product. The microplates were read using an ELISA plate reader at 570 nm with a reference wavelength of 630 nm.

[2] = test system: 8701-BC breast cancer cells; test: Cell proliferation assay (MTT), 8701-BC; format: cell-based, human; conditions: exponentially growing 8701-BC cells, compounds 0-100 μM, 72 hours, means ± SEM, NA = not active at 100 μM concentration
Procedure: as §1, §2

Src (Tyr416) = target: T1, Src (Tyr416) (Homo sapiens, UniProt P12931); test: Phospho-Src inhibition, immunoblot, 8701-BC cells after EGF stimulation; format: cell-based
T1 construct: subjected to immunoblot using phospho-specific antibodies against Src (Y416) and non pospho-specific Src as control; endogenous in cells; host or cells: 8701-BC breast cancer cells
T1 sequence (P12931 whole entry): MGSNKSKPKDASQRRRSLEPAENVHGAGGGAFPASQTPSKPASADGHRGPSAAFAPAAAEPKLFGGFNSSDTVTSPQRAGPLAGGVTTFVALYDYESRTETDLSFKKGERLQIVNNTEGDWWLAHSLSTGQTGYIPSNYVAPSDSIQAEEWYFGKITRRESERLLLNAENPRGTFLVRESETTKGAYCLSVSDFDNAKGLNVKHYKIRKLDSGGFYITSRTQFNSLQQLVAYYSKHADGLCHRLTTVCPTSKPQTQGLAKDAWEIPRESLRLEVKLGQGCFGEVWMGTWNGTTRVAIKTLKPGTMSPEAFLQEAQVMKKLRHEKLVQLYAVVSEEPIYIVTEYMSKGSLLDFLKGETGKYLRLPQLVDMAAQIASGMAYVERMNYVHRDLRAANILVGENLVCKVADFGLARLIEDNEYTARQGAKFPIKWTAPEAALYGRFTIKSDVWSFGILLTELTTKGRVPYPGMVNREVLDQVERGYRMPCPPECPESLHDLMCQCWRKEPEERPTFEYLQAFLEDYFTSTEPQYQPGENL
Procedure: FIG. 3. […] Immunoblot analysis was performed using phospho-specific antibodies to Src (Tyr416). Filters were additionally reprobed with specific non-phospho anti-Src antibodies after stripping. Lane 1: cell control; lane 2: cells treated for 15 min with EGF (100 nM); lane 3-7: cells challenged for 3 h in the presence of 10 μM of the specified compound and then treated for 15 min with EGF (100 nM).
Immunoblot analysis was performed using phospho-specific antibodies to Src (Tyr416). Filters were additionally reprobed with specific non-phospho anti-Src antibodies after stripping.
Cells were treated as reported above but the cells were challenged with the compounds for 3 h, and then treated with 100 nM EGF (Cell Signaling Technology, MA, U.S.A.). […] later, cells were harvested and lysed in an appropriate buffer containing 1% Triton X-100. Proteins were quantitated by the BCA method (Pierce Rockford, U.S.A.). Equal amounts of total cellular protein were resolved by SDS-polyacrylamide gel electrophoresis, transferred to nitrocellulose filters and subjected to immunoblot using phospho-specific antibodies against Src (Y416) and non pospho-specific Src as control (Cell Signaling Technology, MA, U.S.A.).

K562 cells = test: Cell proliferation assay, K562; format: cell-based, human; conditions: compounds 0-100 μM, means ± SEM
Procedure: (§3) MEG-01 and K562 (2×10^4 cells/mL) were incubated in 100 μL RPMI 1640 culture medium (BioWhittaker, Vallensbaek, DK), supplemented with 10% foetal calf serum (FCS; BioWhittaker, Vallensbaek, DK) and antibiotics (100 U/mL penicillin and 100 μg/mL streptomycin), at 37° C. in 5% CO2. After an overnight incubation with 100 μL medium supplemented with 0.5% FCS, the medium was replaced and 100 μL RPMI 1640 with 10% FCS along with different concentrations (0-100 μM) of the studied compounds, were added to cell cultures.

Meg-01 cells = test: Cell proliferation assay, Meg-01; format: cell-based, human; conditions: compounds 0-100 μM, means ± SEM
Procedure: as §3

[3] = 10 μM compound 3 h, then 100 nM EGF 15 min, immuno blot gel area

Row | IC50 [1] | IC50 [2] | SMILES | other results
1 | 20.2 ± 0.4 µM |  | COc1cc2ncnc(Nc3cccc(Cl)c3)c2cc1OC [AG1478, reference compound] | 
2 | 86.9 ± 2.1 µM |  | OC(Cn1ncc2c(N3CCOCC3)ncnc21)c1ccccc1 (centres unmarked) [Compound 3a] | 
3 | 83.2 ± 1.8 µM |  | CCCCNc1ncnc2c1cnn2CC(O)c1ccccc1 (centres unmarked) [Compound 3b] | 
4 | 13.4 ± 0.2 µM |  | OC(Cn1ncc2c(N3CCCCC3)ncnc21)c1ccccc1 (centres unmarked) [Compound 3c] | 
5 | 91.2 ± 1.4 µM |  | CCCNc1ncnc2c1cnn2CC(O)c1ccccc1 (centres unmarked) [Compound 3d] | 
6 | 12.7 ± 0.7 µM |  | OC(Cn1ncc2c(NCc3ccccc3)ncnc21)c1ccccc1 (centres unmarked) [Compound 3e] | 
7 | 80.1 ± 2.5 µM | 45.6 ± 0.5 µM | OC(Cn1ncc2c(NCCc3ccccc3)ncnc21)c1ccccc1 (centres unmarked) [Compound 3f] | 
8 | 95.7 ± 2.3 µM | 54.4 ± 1.5 µM | OC(Cn1ncc2c(NCc3ccc(F)cc3)ncnc21)c1ccccc1 (centres unmarked) [Compound 3g] | 
9 | 69.3 ± 1.2 µM |  | C(=Cn1ncc2c(N3CCCCC3)ncnc21)c1ccccc1 [Compound 4a] | 
10 | 59.2 ± 1 µM | 58.8 ± 0.7 µM | C(=Cn1ncc2c(N3CCOCC3)ncnc21)c1ccccc1 [Compound 4b] | 
11 | 91.5 ± 2 µM | 80.5 ± 6.8 µM | CCCCNc1ncnc2c1cnn2C=Cc1ccccc1 [Compound 4c] | 
12 | 43.6 ± 1.3 µM | 93.7 ± 0.6 µM | C(=Cn1ncc2c(N3CCCCCC3)ncnc21)c1ccccc1 [Compound 4d] | 
13 | 61.2 ± 1 µM | 57.2 ± 0.8 µM | CCCNc1ncnc2c1cnn2C=Cc1ccccc1 [Compound 4e] | 
14 |  | 43.4 ± 0.4 µM | CCOCCNc1ncnc2c1cnn2C=Cc1ccccc1 [Compound 4f] | 
15 | 63.1 ± 1 µM | 50.4 ± 0.1 µM | C(=Cn1ncc2c(N3CCCC3)ncnc21)c1ccccc1 [Compound 4g] | 
16 |  | 50.5 ± 1.3 µM | C(=Cn1ncc2c(NC3CCCCC3)ncnc21)c1ccccc1 [Compound 4h] | 
17 | 11.7 ± 0.1 µM | 65 ± 0.3 µM | C(=Cn1ncc2c(NCc3ccccc3)ncnc21)c1ccccc1 [Compound 4i] | 
18 | 15 ± 1.2 µM | 64.7 ± 0.6 µM | C(=Cn1ncc2c(NCCc3ccccc3)ncnc21)c1ccccc1 [Compound 4j] | 
19 | 49.8 ± 0.8 µM |  | CCSc1nc(N2CCOCC2)c2cnn(C=Cc3ccccc3)c2n1 [Compound 4k] | IC50 (K562 cells): 75.1 ± 1.7 µM; IC50 (Meg-01 cells): 12.1 ± 1.1 µM
20 | 39.8 ± 0.6 µM |  | CSc1nc(NCc2ccccc2)c2cnn(C=Cc3ccccc3)c2n1 [Compound 4l] | 
21 | 54.1 ± 0.7 µM |  | CSc1nc(N2CCCCC2)c2cnn(C=Cc3ccccc3)c2n1 [Compound 4m] | 
22 | 35.7 ± 0.6 µM |  | CSc1nc(N2CCOCC2)c2cnn(C=Cc3ccccc3)c2n1 [Compound 4n] | 
23 | 33.6 ± 1.2 µM |  | CCCCNc1ncnc2c1cnn2CC(Br)c1ccccc1 (centres unmarked) [Compound 5d] | IC50 (K562 cells): 34.3 ± 0.9 µM; IC50 (Meg-01 cells): 19.4 ± 0.4 µM
24 | 28.2 ± 0.4 µM |  | BrC(Cn1ncc2c(NC3CCCCC3)ncnc21)c1ccccc1 (centres unmarked) [Compound 5i] | IC50 (K562 cells): 38.2 ± 0.8 µM; IC50 (Meg-01 cells): 32.7 ± 0.3 µM

Continued, compound first:

Row | SMILES | IC50 [1] | IC50 [2] | other results
25 | CSc1nc(N2CCCCC2)c2cnn(CC(Cl)c3ccccc3)c2n1 (centres unmarked) [Compound 1a] | 37.6 ± 0.8 µM | 67.5 ± 1.2 µM | 
26 | CSc1nc(N2CCOCC2)c2cnn(CC(Cl)c3ccccc3)c2n1 (centres unmarked) [Compound 1b] | 26.9 ± 0.4 µM | 64.2 µM | 
27 | CCOCCNc1nc(SC)nc2c1cnn2CC(Cl)c1ccccc1 (centres unmarked) [Compound 1c] | 32.4 ± 0.6 µM | 59.8 ± 3.1 µM | 
28 | CCCCNc1nc(SC)nc2c1cnn2CC(Cl)c1ccccc1 (centres unmarked) [Compound 1d] | 27.4 ± 0.5 µM | 63.8 ± 2.1 µM | 
29 | CSc1nc(NCc2ccccc2)c2cnn(CC(Cl)c3ccccc3)c2n1 (centres unmarked) [Compound 1e] | 24.6 ± 0.7 µM | 53.2 ± 1.2 µM | 
30 | CSc1nc(NCCc2ccccc2)c2cnn(CC(Cl)c3ccccc3)c2n1 (centres unmarked) [Compound 1f] | 27.1 ± 0.2 µM | 31.2 µM | Phospho-Src/Non-phospho-Src ratio (%) (Src (Tyr416); 10 μM compound 3 h, then 100 nM EGF 15 min, Control + EGF 56, Control 23): 9%; Non-phospho-Src (Src (Tyr416); [3]): 168 area units; Phospho-Src (Tyr416) (Src (Tyr416); [3]): 15 area units; inhibition of Src phosphorylation compared with PP2 (in words) (Src (Tyr416); immunoblot, phospho-specific antibodies to Src (Tyr416)): inhibit Src phosphorylation better than the reference compound PP2
31 | CCCNc1nc(SC)nc2c1cnn2CC(Cl)c1ccccc1 (centres unmarked) [Compound 1g] | 32.1 ± 0.5 µM | 64.1 ± 0.5 µM | 
32 | CCN(CC)c1nc(SC)nc2c1cnn2CC(Cl)c1ccccc1 (centres unmarked) [Compound 1h] | 70.2 ± 1.4 µM | 86.9 ± 1.2 µM | 
33 | CSc1nc(N2CCCC2)c2cnn(CC(Cl)c3ccccc3)c2n1 (centres unmarked) [Compound 1i] | 32.3 ± 0.8 µM | 56.3 ± 2 µM | 
34 | CSc1nc(N2CCCCCC2)c2cnn(CC(Cl)c3ccccc3)c2n1 (centres unmarked) [Compound 1j] |  | 54.4 ± 0.8 µM | 
35 | CSc1nc(NC2CCCCC2)c2cnn(CC(Cl)c3ccccc3)c2n1 (centres unmarked) [Compound 1k] | 43.8 ± 0.7 µM | 35.3 ± 0.5 µM | 
36 | CCSc1nc(N2CCOCC2)c2cnn(CC(Cl)c3ccccc3)c2n1 (centres unmarked) [Compound 2b] | 42.3 ± 0.7 µM | 79.8 ± 3 µM | 
37 | CCCCNc1nc(SCC)nc2c1cnn2CC(Cl)c1ccccc1 (centres unmarked) [Compound 2c] | 40.2 ± 0.4 µM | 38.8 ± 0.5 µM | IC50 (K562 cells): 27.4 ± 0.6 µM
38 | CCCNc1nc(SCC)nc2c1cnn2CC(Cl)c1ccccc1 (centres unmarked) [Compound 2d] | 79.4 ± 1.8 µM | 28.6 ± 1.6 µM | 
39 | CCSc1nc(N2CCCC2)c2cnn(CC(Cl)c3ccccc3)c2n1 (centres unmarked) [Compound 2e] | 89.3 ± 1.7 µM | 72.1 ± 1.7 µM | 
40 | CCSc1nc(NCc2ccccc2)c2cnn(CC(Cl)c3ccccc3)c2n1 (centres unmarked) [Compound 2f] |  | 42.8 ± 0.8 µM | 
